Assay results taken from the supplement of paper PMC10883282.

Legend:
Assay in all cases: relative viability vs DMSO control (72 h) (fraction); higher = more viable cells
[1] = test system: KHOS-240S
In short: (§1)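 Plates held 72 h at 37 °C and 5% CO2 contained sarcoma cell lines seeded in 384-well format to reach 80–90% confluence, plus 2.5 µl of serially diluted compound added after 24 h. Source plate concentrations ran from 10 mM to 0.0002 mM, with 0.1% DMSO as vehicle and a 5 µM positive control. Percent growth from ATPLite readings, averaged over up to triplicate wells, gave relative viability. Values were rescaled with 1 as full and 0 as none.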

[2] = test system: RD
In short: as §1

[3] = test system: SW1353
In short: as §1

[4] = test system: SYO-1
In short: as §1

[5] = test system: MES-SA
In short: as §1

CCOc1cc2ncc(C#N)c(Nc3ccc(OCc4ccccn4)c(Cl)c3)c2cc1NC(=O)/C=C/CN(C)C [Neratinib]
relative viability
Conditions	[1]	[2]	[3]	[4]	[5]
0.00017 µM	1.03	1.12	0.971	0.957	0.903
0.00051 µM	1.06	1.1	0.955	0.955	0.889
0.00152 µM	1.06	1.11	0.923	0.938	0.924
0.00457 µM	1.06	1.11	0.934	0.932	0.913
0.01372 µM	1.05	1.09	0.899	0.931	0.897
0.04115 µM	1.03	1.072	0.807	0.917	0.869
0.1235 µM	1	0.95	0.71	0.875	0.79
0.3704 µM	0.896	0.714	0.568	0.716	0.517
1.111 µM	0.741	0.562	0.525	0.581	0.348
3.333 µM	0.618	0.384	0.426	0.431	0.282
10 µM	0.338	0.0033	0.0062	-0.0166	0.0189

O=C1CCc2c(Oc3ccc4c(c3)[C@@H]3[C@H](O4)[C@H]3c3nc4cc(C(F)(F)F)ccc4[nH]3)ccnc2N1 [Lifirafenib]
relative viability
Conditions	[1]	[2]	[3]	[4]	[5]
0.00017 µM	1.068	1.08	0.989	0.947	0.948
0.00051 µM	1.07	1.1	0.95	0.941	0.952
0.00152 µM	1.06	1.09	0.989	0.9369	0.954
0.00457 µM	1.08	1.13	1.01	0.947	0.955
0.01372 µM	1.06	1.11	1.06	0.937	0.961
0.04115 µM	1.06	1.13	1.06	0.91	0.974
0.1235 µM	1.06	1.11	1.06	0.905	0.985
0.3704 µM	1.03	1.039	1.08	0.823	0.992
1.111 µM	0.967	0.947	1.03	0.666	0.956
3.333 µM	0.792	0.787	0.861	0.555	0.792
10 µM	0.547	0.5251	0.545	0.437	0.493

CCc1nc(C(N)=O)c(Nc2ccc(N3CCC(N4CCN(C)CC4)CC3)c(OC)c2)nc1NC1CCOCC1 [Gilteritinib]
relative viability
Conditions	[1]	[2]	[3]	[4]	[5]
60 pM	1.08	1.06	1.04	0.959	0.954
0.00018 µM	1.06	1.06	1.04	0.921	0.936
0.00053 µM	1.08	1.07	1	0.915	0.921
0.0016 µM	1.04	1.08	1	0.848	0.922
0.0048 µM	1.08	1.08	0.932	0.815	0.904
0.014 µM	1.02	1.07	0.955	0.791	0.947
0.043 µM	0.985	1.01	0.972	0.734	0.904
0.13 µM	0.913	0.829	0.896	0.637	0.89
0.389 µM	0.848	0.516	0.779	0.481	0.76
1.167 µM	0.509	0.363	0.65	0.389	0.51
3.5 µM	0.398	0.32	0.617	0.369	0.393

CN(C)C(=O)c1cc2cnc(Nc3ccc(N4CCNCC4)cn3)nc2n1C1CCCC1 [Ribociclib]
relative viability
Conditions	[1]	[2]	[3]	[4]	[5]
0.00017 µM	1.08	1.13	1.01	0.96	0.899
0.00051 µM	1.07	1.06	1	0.956	0.909
0.00152 µM	1.08	1.08	0.974	0.96	0.914
0.00457 µM	1.1	1.12	0.985	0.937	0.908
0.01372 µM	1.06	1.09	0.992	0.923	0.896
0.04115 µM	1.08	1.05	0.961	0.87	0.884
0.1235 µM	1.04	1.04	0.921	0.814	0.868
0.3704 µM	1.05	1.06	0.918	0.772	0.853
1.111 µM	1	0.995	0.901	0.705	0.817
3.333 µM	0.891	0.915	0.802	0.598	0.6876
10 µM	0.784	0.87	0.858	0.523	0.598

Cc1cc2c(F)c(Oc3ncnn4cc(OC[C@@H](C)OC(=O)[C@H](C)N)c(C)c34)ccc2[nH]1 [Brivanib_alaninate]
relative viability
Conditions	[1]	[2]	[3]	[4]	[5]
0.00017 µM	1.016	1.07	0.949	0.934	0.919
0.00051 µM	1.04	1.07	0.952	0.937	0.939
0.00152 µM	1.03	1.1	0.999	0.94	0.939
0.00457 µM	1.04	1.09	0.928	0.927	0.929
0.01372 µM	1.052	1.1	0.97	0.9194	0.927
0.04115 µM	1.03	1.08	0.963	0.914	0.911
0.1235 µM	1.03	1.09	0.94	0.906	0.92
0.3704 µM	1.04	1.1	0.958	0.903	0.942
1.111 µM	1.007	1.12	0.97	0.846	0.956
3.333 µM	0.93	1.04	0.984	0.673	0.829
10 µM	0.738	0.874	0.977	0.586	0.5146
